Test results taken from ChEMBL document CHEMBL4619718, “Discovery of cyclic guanidine-linked sulfonamides as inhibitors of LMTK3 kinase” (Bioorg Med Chem Lett, 2020).
pIC50: −log10 of the molar value. Activity calls are given as the source filed them. The calls are words filed in the database; no cut-off is given here.

Tests used:
[1] = target: T1, Serine/threonine-protein kinase LMTK3 (Homo sapiens) (UniProt Q96Q04); assay: Binding affinity to full length LMTK3 (unknown origin) assessed as thermal stabilization of protein at 54 degC incubated for 3 mins followed by 3 min incubated at room temperature by CETSA-based Western blot analysis
T1 sequence (whole entry): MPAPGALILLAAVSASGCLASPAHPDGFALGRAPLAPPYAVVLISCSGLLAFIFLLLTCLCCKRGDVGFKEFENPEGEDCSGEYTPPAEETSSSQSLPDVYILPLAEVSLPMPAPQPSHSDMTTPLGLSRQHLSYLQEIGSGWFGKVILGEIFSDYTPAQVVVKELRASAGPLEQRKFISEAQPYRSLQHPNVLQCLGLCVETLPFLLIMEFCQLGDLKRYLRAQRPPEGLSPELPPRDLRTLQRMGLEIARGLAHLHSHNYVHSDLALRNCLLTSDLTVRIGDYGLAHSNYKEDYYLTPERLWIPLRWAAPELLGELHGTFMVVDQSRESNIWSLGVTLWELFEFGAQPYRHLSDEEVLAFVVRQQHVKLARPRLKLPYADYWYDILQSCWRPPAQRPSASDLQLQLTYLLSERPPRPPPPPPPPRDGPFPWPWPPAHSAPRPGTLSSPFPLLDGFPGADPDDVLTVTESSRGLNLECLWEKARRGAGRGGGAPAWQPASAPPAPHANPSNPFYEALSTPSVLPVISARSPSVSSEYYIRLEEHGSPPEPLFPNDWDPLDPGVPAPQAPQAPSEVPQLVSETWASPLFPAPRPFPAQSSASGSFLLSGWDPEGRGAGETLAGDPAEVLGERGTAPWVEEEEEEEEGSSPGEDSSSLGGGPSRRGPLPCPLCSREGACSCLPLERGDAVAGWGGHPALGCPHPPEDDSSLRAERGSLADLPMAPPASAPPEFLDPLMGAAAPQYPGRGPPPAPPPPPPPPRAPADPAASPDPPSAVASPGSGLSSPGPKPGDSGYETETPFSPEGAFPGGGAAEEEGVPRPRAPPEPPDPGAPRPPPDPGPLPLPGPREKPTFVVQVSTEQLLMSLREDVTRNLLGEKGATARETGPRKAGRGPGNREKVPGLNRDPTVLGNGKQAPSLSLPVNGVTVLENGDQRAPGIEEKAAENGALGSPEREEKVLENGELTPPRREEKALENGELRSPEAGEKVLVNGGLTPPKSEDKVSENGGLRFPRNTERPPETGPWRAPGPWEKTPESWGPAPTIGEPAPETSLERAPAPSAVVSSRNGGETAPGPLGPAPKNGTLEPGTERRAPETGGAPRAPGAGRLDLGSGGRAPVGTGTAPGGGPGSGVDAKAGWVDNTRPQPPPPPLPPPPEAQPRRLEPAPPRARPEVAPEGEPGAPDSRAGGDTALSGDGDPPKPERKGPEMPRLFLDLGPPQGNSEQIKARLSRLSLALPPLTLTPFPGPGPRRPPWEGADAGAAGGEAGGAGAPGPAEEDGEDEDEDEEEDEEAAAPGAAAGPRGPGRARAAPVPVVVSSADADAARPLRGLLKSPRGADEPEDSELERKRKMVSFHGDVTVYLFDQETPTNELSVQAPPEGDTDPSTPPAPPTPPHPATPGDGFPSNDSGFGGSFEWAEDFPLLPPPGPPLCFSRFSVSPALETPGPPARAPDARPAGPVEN

[2] = target: Insulin-like growth factor 1 receptor (Homo sapiens) (UniProt P08069); assay: Inhibition of IGF1R (unknown origin) at 10 uM relative to control
Insulin-like growth factor 1 receptor (Homo sapiens), sequence (P08069 31-736 limits assumed): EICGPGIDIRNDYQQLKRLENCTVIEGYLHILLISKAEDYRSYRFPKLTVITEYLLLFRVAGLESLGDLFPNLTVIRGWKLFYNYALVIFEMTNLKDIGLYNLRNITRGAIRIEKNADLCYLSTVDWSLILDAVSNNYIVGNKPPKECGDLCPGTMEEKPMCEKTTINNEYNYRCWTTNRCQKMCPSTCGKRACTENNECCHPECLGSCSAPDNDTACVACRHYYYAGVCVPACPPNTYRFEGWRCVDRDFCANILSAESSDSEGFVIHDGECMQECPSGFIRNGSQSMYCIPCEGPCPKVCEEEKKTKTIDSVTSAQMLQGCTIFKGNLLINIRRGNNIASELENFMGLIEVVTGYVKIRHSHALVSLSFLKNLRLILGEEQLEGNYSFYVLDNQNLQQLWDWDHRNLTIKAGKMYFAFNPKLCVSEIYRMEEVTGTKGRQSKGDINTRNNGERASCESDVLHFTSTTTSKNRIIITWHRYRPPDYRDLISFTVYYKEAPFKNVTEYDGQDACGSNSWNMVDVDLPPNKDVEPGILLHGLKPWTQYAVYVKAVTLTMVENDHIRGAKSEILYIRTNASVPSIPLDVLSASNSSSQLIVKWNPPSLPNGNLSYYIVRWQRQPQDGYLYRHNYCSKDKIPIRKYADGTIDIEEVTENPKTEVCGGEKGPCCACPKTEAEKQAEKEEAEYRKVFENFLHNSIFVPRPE
Insulin-like growth factor 1 receptor (Homo sapiens), sequence (P08069 741-1367 limits assumed): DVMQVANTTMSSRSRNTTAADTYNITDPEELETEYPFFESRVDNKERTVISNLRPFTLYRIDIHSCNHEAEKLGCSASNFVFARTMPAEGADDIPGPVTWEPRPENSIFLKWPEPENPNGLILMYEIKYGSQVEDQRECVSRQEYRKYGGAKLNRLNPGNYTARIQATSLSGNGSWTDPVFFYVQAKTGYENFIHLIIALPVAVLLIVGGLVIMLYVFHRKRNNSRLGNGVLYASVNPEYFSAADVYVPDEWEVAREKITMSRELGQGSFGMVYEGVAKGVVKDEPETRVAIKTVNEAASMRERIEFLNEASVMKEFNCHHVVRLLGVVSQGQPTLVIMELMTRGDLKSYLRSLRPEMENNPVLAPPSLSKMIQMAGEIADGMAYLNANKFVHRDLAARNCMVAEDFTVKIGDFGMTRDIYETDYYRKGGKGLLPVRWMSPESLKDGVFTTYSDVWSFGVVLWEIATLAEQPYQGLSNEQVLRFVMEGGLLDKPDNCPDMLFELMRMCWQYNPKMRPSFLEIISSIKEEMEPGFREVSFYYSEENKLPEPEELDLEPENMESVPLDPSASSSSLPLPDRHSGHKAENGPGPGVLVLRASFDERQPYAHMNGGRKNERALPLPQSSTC

[3] = target: BDNF/NT-3 growth factors receptor (Homo sapiens) (UniProt Q16620); assay: Inhibition of TRKB (unknown origin) at 10 uM relative to control
BDNF/NT-3 growth factors receptor (Homo sapiens), sequence (Q16620 32-822 limits assumed): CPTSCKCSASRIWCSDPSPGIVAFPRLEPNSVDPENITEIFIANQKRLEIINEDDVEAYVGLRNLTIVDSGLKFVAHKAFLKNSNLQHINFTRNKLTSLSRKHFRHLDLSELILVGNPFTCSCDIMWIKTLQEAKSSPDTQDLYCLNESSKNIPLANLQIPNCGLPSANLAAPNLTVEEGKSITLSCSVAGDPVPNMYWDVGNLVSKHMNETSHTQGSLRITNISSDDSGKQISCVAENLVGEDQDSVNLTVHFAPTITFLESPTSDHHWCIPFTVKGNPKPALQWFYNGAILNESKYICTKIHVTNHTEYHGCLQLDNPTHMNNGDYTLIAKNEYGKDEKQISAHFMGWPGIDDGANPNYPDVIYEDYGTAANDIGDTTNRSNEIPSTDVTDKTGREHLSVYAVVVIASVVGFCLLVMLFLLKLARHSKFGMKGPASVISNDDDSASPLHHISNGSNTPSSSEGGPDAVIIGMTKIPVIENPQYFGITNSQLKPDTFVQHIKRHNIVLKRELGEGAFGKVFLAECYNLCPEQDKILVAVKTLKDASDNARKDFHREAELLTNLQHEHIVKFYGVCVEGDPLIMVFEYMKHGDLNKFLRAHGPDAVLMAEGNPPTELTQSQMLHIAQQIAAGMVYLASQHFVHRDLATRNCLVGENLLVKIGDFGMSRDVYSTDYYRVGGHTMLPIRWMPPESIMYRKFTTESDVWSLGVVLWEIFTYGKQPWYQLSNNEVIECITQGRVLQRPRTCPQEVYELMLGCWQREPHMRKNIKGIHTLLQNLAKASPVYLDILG

[4] = target: Insulin receptor (Homo sapiens) (UniProt P06213); assay: Inhibition of INSR (unknown origin) at 10 uM relative to control
Insulin receptor (Homo sapiens), sequence (P06213 28-758 limits assumed): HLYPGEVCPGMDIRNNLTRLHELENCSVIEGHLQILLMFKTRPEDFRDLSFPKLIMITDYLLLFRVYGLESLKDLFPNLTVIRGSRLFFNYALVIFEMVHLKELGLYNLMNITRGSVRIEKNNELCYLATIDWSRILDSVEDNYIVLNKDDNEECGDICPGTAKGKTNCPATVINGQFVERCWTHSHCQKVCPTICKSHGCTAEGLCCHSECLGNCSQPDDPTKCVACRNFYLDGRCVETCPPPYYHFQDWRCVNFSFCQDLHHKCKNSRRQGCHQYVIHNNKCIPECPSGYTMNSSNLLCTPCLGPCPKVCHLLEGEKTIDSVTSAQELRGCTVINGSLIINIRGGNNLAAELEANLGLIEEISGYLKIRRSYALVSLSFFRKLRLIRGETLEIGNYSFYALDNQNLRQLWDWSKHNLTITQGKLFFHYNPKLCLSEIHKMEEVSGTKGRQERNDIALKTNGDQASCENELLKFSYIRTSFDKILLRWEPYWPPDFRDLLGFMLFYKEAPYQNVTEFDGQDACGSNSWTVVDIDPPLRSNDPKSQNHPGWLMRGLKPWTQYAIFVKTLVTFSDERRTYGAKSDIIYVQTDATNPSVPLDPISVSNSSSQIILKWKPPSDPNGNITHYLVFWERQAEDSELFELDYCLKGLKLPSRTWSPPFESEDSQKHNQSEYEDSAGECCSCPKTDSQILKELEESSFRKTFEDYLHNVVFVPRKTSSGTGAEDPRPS
Insulin receptor (Homo sapiens), sequence (P06213 763-1382 limits assumed): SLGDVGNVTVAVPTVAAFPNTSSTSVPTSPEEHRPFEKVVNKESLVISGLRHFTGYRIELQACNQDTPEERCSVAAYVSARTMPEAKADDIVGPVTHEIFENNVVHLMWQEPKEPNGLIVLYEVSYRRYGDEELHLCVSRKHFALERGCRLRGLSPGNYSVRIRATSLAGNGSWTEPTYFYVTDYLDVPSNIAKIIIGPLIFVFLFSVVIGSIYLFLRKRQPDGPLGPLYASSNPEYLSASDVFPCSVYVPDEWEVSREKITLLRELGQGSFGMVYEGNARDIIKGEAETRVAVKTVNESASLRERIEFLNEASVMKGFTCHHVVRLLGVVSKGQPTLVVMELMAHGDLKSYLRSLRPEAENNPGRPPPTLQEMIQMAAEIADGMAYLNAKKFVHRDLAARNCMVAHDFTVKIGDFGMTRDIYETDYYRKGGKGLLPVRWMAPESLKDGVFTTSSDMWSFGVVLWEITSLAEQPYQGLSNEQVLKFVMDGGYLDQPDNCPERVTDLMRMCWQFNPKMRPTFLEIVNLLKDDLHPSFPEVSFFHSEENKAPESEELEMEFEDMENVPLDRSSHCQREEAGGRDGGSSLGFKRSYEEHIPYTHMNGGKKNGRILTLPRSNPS

[5] = target: T2, Muscle, skeletal receptor tyrosine-protein kinase (Homo sapiens) (UniProt O15146); assay: Inhibition of MUSK (unknown origin) at 10 uM relative to control
T2 sequence (whole entry): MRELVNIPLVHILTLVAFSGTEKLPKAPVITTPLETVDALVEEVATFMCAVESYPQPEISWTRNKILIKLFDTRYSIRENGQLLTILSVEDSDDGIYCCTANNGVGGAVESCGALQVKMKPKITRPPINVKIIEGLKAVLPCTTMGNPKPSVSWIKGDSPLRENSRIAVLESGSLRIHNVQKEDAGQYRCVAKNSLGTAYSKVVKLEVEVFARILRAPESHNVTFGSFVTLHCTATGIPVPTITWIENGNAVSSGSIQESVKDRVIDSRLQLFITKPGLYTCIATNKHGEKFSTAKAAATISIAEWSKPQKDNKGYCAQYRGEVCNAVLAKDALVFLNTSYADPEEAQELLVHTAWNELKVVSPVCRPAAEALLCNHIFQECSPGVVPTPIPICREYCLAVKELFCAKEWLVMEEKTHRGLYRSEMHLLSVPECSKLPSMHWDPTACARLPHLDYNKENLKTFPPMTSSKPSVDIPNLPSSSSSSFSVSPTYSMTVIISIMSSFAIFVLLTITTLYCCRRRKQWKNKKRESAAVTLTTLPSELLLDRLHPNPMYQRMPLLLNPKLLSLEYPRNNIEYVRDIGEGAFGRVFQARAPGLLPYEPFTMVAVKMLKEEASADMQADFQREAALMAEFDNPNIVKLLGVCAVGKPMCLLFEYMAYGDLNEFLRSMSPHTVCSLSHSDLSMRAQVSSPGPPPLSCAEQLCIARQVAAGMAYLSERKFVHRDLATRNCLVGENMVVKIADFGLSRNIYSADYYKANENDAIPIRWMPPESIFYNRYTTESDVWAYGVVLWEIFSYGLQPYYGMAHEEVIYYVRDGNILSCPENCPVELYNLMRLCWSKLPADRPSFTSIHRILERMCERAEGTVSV

[6] = target: T3, Serine/threonine-protein kinase LMTK3 (Homo sapiens, UniProt Q96Q04); assay: Inhibition of LMTK3 (unknown origin)
T3 sequence (Q96Q04 whole entry): T1 sequence (whole entry)

[7] = target: T1, Serine/threonine-protein kinase LMTK3 (Homo sapiens); assay: Binding affinity to hyper glycosylated LMTK3 (unknown origin) assessed as change in melting temperature at 10 uM by CETSA-based Western blot analysis
T47D [8] = assay: Antiproliferative activity against human T47D cells at 5 uM incubated for 6 days by MTT assay relative to control; format: functional
MCF7 [9] = assay: Antiproliferative activity against human MCF7 cells at 5 uM incubated for 6 days by MTT assay relative to control; format: functional
[10] = target: T1, Serine/threonine-protein kinase LMTK3 (Homo sapiens); assay: Binding affinity to full length LMTK3 (unknown origin) assessed as change in melting temperature at 10 uM by CETSA-based Western blot analysis
MCF7 [11] = assay: Antiproliferative activity against human MCF7 cells at 10 uM incubated for 6 days by MTT assay relative to control; format: functional
T47D [12] = assay: Antiproliferative activity against human T47D cells at 10 uM incubated for 6 days by MTT assay relative to control; format: functional
[13] = target: T1, Serine/threonine-protein kinase LMTK3 (Homo sapiens); assay: Binding affinity to full length LMTK3 (unknown origin) assessed as thermal stabilization of protein at 0.3 to 1 uM at 54 degC incubated for 3 mins followed by 3 min incubated at room temperature by CETSA-based Western blot analysis
MCF7 [14] = assay: Antiproliferative activity against human MCF7 cells at 20 uM incubated for 6 days by MTT assay relative to control; format: functional
T47D [15] = assay: Antiproliferative activity against human T47D cells at 20 uM incubated for 6 days by MTT assay relative to control; format: functional
[16] = target: BDNF/NT-3 growth factors receptor (Homo sapiens) (UniProt Q16620); conditions: 1.52 nM
Description: Inhibition of TRKB (unknown origin) at 1.52 nM relative to control

[17] = target: T2, Muscle, skeletal receptor tyrosine-protein kinase (Homo sapiens); assay: Inhibition of MUSK (unknown origin) at 100 nM relative to control

In the case of `N=C1NC[C@H](CC2CCCCC2)N1C[C@H](Cc1ccc(O)cc1)NS(=O)(=O)c1ccccc1Cl`, the Activity [1] was “inactive”, the inhibition [2] was 16.1% and the inhibition [3] was 16%. For the same compound, the inhibition [4] was 0.1%, the inhibition [5] was 56.8% and the pIC50 [6] was 6.65.
With `CC(C)C[C@H]1CNC(=N)N1C[C@H](Cc1ccc(O)cc1)NS(=O)(=O)c1ccccc1Cl` the inhibition [2] was 15.9%, the inhibition [3] was 0.1% and the inhibition [4] was 7.3%. For the same compound, the inhibition [5] was 19.8% and the pIC50 [6] was 6.68.
For `N=C1NC[C@H](CC2CCCCC2)N1C[C@H](Cc1ccccc1)NS(=O)(=O)c1ccccc1`, the Activity [1] was “Active”, the Activity [7] was “Active” and the inhibition [2] was 11.4%. For the same compound, the Activity (T47D [8]) was 60%, the inhibition [3] was 10.6% and the inhibition [4] was 18.4%. The inhibition [5] was 103%, the Activity (MCF7 [9]) was 60% and the Activity [10] was “Active”. It also gave an Activity (MCF7 [11]) of 100%, an Activity (T47D [12]) of 100% and a pIC50 [6] of 5.79. The Activity [13] was “Active”.
`CC(C)C[C@H]1CNC(=N)N1C[C@H](Cc1ccccc1)NS(=O)(=O)c1ccccc1` showed an inhibition [2] of 8.3%, an Activity (MCF7 [14]) of 100% and an inhibition [3] of 2%. For the same compound, the inhibition [4] was 2.3%, the inhibition [5] was 27.3% and the pIC50 [6] was 6.18. For the same compound, the Activity (T47D [15]) was 100%.
Compound `Cc1ccc(S(=O)(=O)N[C@@H](Cc2ccc(O)cc2)CN2C(=N)NC[C@@H]2CC2CCCCC2)cc1` has an inhibition [2] of 16.1%, an Activity (MCF7 [14]) of 50% and an inhibition [3] of 25.3%. It also gave an inhibition [4] of 5.7%, an inhibition [5] of 79.8% and a pIC50 [6] of 6.50. For the same compound, the Activity (T47D [15]) was 50%.
`CN1CCN(c2ccc(C(=O)Nc3n[nH]c4ccc(Cc5cc(F)cc(F)c5)cc34)c(NC3CCOCC3)c2)CC1` [ENTRECTINIB] showed an inhibition [16] of over 95%, an inhibition [17] of 54.1% and a pIC50 [6] of 5.33.
Work on `Cc1ccc(S(=O)(=O)N[C@@H](Cc2ccc(O)cc2)CN2C(=N)NC[C@@H]2CC(C)C)cc1` yielded an inhibition [2] of 7.8%, an inhibition [3] of 0.8% and an inhibition [4] of 3.9%. The inhibition [5] was 22.2% and the pIC50 [6] was 6.51.
Compound `C[C@@]1(C(=O)Nc2ccc(F)nc2)CCCN1c1nc(Nc2cc(C3CC3)n[nH]2)c2cccn2n1` [BMS-754807] has an inhibition [16] of over 95%, an inhibition [17] of 75.1% and a pIC50 [6] of 5.50.
